Reference: US11541028B2, “Peptide pharmaceuticals for treatment of NASH and other disorders” (Mederis Diabetes LLC, priority 2018, dated 2023)
Bridge positions count the residues as written; N and C are the ends. Square brackets hold non-standard residues; d marks the D form. Peptide text beside a SMILES is read from it. * marks the point of attachment. Melibiouronoyl(1β-O-dodecyl) = CCCCCCCCCCCCO[C@@H]1O[C@H](CO[C@H]2O[C@H](C(=O)*)[C@H](O)[C@H](O)[C@H]2O)[C@@H](O)[C@H](O)[C@H]1O; X1 = CCCCCCCCCCCCCCCCO[C@@H]1O[C@H](CO[C@H]2O[C@H](C(=O)*)[C@H](O)[C@H](O)[C@H]2O)[C@@H](O)[C@H](O)[C@H]1O; X2 = CCCCCCCCCCCCCCO[C@@H]1O[C@H](CO[C@H]2O[C@H](C(=O)*)[C@H](O)[C@H](O)[C@H]2O)[C@@H](O)[C@H](O)[C@H]1O; Aib = CC(C)(N)C(=O)O

Assays:
[1] = target: T1, human GLP-1 receptor (Homo sapiens, UniProt P43220); assay: DiscoveRx LeadHunter cellular assay, cAMP stimulation, GLP-1 receptor in CHO cells; format: cell-based; details: human GLP-1 receptor in CHO cells (DiscoveRx); read-out: EC50 cAMP GLP-1 R
T1 construct: host or cells: CHO cells
Method: (§1) A further series of cellular assays was carried out with standard cellular assays (DiscoveRx, LeadHunter assays) using readout of cAMP stimulation or arrestin activation. Compounds were weighed precisely in an amount of about 1 mg and shipped to DiscoveRx for dilution and assay.

[2] = target: T2, human glucagon receptor (Homo sapiens, UniProt P47871); assay: DiscoveRx LeadHunter cellular assay, cAMP stimulation, glucagon receptor in CHO cells; format: cell-based
T2 construct: host or cells: CHO cells
T2 sequence (P47871 26-477): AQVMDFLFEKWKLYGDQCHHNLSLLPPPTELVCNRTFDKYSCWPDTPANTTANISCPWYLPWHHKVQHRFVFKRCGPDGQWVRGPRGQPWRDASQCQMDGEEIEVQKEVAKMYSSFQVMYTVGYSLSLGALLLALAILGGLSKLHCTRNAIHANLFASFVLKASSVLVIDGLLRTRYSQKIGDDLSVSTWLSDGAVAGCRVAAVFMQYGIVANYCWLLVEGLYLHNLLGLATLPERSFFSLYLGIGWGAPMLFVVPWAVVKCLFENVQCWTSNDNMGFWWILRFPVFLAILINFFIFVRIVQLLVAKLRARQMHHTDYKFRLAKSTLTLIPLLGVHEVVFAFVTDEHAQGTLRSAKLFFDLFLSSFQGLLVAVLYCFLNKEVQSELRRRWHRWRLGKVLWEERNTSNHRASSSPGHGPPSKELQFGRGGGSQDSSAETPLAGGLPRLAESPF
Method: as §1

T1 sequence (P43220 24-463): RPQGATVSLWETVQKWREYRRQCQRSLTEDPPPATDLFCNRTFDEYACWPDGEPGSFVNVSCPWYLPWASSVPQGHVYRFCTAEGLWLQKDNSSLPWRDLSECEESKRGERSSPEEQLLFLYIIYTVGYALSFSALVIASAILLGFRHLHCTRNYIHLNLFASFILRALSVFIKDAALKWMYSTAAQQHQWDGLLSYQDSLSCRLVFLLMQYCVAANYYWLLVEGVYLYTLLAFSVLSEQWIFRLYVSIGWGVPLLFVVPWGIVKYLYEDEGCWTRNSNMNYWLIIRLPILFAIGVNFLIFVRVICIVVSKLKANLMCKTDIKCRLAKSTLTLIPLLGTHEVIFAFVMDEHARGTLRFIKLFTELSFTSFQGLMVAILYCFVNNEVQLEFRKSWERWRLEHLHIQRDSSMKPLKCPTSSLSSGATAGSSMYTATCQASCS

| SMILES | EC50 [1] | EC50 [2] |
| --- | --- | --- |
| CCCCCCCCCCCCO[C@@H]1O[C@H](CO[C@H]2O[C@H](C(=O)NCCCC[C@@H]3NC(=O)[C@@H](NC(=O)[C@H](CC(=O)O)NC(=O)[C@H](CC(C)C)NC(=O)[C@H](Cc4ccc(O)cc4)NC(=O)[C@H](CCCCN)NC(=O)[C@H](CO)NC(=O)[C@H](Cc4ccc(O)cc4)NC(=O)[C@H](CC(=O)O)NC(=O)[C@H](CO)NC(=O)[C@@H](NC(=O)[C@H](Cc4ccccc4)NC(=O)[C@@H](NC(=O)CNC(=O)[C@H](CCC(N)=O)NC(=O)C(C)(C)NC(=O)[C@@H](N)Cc4c[nH]cn4)[C@@H](C)O)[C@@H](C)O)CCC(=O)NCCCC[C@@H](C(=O)N[C@@H](CCC(=O)O)C(=O)N[C@@H](Cc4ccccc4)C(=O)N[C@H](C(=O)N[C@@H](CCC(N)=O)C(=O)N[C@@H](Cc4c[nH]c5ccccc45)C(=O)N[C@@H](CC(C)C)C(=O)N[C@@H](CC(C)C)C(=O)N[C@@H](CCC(N)=O)C(=O)N[C@H](C(N)=O)[C@@H](C)O)[C@@H](C)CC)NC(=O)[C@H](C)NC(=O)[C@H](C)NC3=O)[C@H](O)[C@H](O)[C@H]2O)[C@@H](O)[C@H](O)[C@H]1O [EU-A1586] | 0.029 nM | 0.107 nM |
| CCCCCCCCCCCCO[C@@H]1O[C@H](CO[C@H]2O[C@H](C(=O)NCCCC[C@@H]3NC(=O)[C@@H](NC(=O)[C@H](CC(=O)O)NC(=O)[C@H](CC(C)C)NC(=O)[C@H](Cc4ccc(O)cc4)NC(=O)[C@H](CCCCN)NC(=O)[C@H](CO)NC(=O)[C@H](Cc4ccc(O)cc4)NC(=O)[C@H](CC(=O)O)NC(=O)[C@H](CO)NC(=O)[C@@H](NC(=O)[C@H](Cc4ccccc4)NC(=O)[C@@H](NC(=O)CNC(=O)[C@H](CCC(N)=O)NC(=O)C(C)(C)NC(=O)[C@@H](N)Cc4c[nH]cn4)[C@@H](C)O)[C@@H](C)O)CCC(=O)NCCCC[C@@H](C(=O)N[C@@H](CCC(=O)O)C(=O)N[C@@H](Cc4ccccc4)C(=O)N[C@H](C(=O)N[C@@H](CCC(N)=O)C(=O)N[C@@H](Cc4c[nH]c5ccccc45)C(=O)N[C@@H](CC(C)C)C(=O)N[C@@H](CC(C)C)C(=O)N[C@@H](CCC(N)=O)C(=O)N[C@H](C(=O)O)[C@@H](C)O)[C@@H](C)CC)NC(=O)[C@H](C)NC(=O)[C@H](C)NC3=O)[C@H](O)[C@H](O)[C@H]2O)[C@@H](O)[C@H](O)[C@H]1O [EU-A1590] | 0.094 nM | 0.343 nM |
| CCCCCCCCCCCCO[C@@H]1O[C@H](CO[C@H]2O[C@H](C(=O)NCCCC[C@@H]3NC(=O)[C@@H](NC(=O)[C@H](CC(=O)O)NC(=O)[C@H](CC(C)C)NC(=O)[C@H](Cc4ccc(O)cc4)NC(=O)[C@H](CCCCN)NC(=O)[C@H](CO)NC(=O)[C@H](Cc4ccc(O)cc4)NC(=O)[C@H](CC(=O)O)NC(=O)[C@H](CO)NC(=O)[C@@H](NC(=O)[C@H](Cc4ccccc4)NC(=O)[C@@H](NC(=O)CNC(=O)[C@H](CCC(N)=O)NC(=O)C(C)(C)NC(=O)[C@@H](N)Cc4c[nH]cn4)[C@@H](C)O)[C@@H](C)O)CCC(=O)NCCCC[C@@H](C(=O)N[C@@H](CCC(=O)O)C(=O)N[C@@H](Cc4ccccc4)C(=O)N[C@H](C(=O)N[C@@H](CCC(=O)O)C(=O)N[C@@H](Cc4c[nH]c5ccccc45)C(=O)N[C@@H](CC(C)C)C(=O)N[C@@H](CC(C)C)C(=O)N[C@@H](CCC(N)=O)C(=O)N[C@H](C(N)=O)[C@@H](C)O)[C@@H](C)CC)NC(=O)[C@H](C)NC(=O)[C@H](C)NC3=O)[C@H](O)[C@H](O)[C@H]2O)[C@@H](O)[C@H](O)[C@H]1O [EU-A1591] (H-H[Aib]QGTFTSDYSKYLDEK(Melibiouronoyl(1β-O-dodecyl))AAKEFIEWLLQT-NH2; lactam 16-20; N-terminus assumed) | 0.073 nM | 0.286 nM |
| CCCCCCCCCCCCO[C@@H]1O[C@H](CO[C@H]2O[C@H](C(=O)NCCCC[C@@H]3NC(=O)[C@@H](NC(=O)[C@H](CC(=O)O)NC(=O)[C@H](CC(C)C)NC(=O)[C@H](Cc4ccc(O)cc4)NC(=O)[C@H](CCCCN)NC(=O)[C@H](CO)NC(=O)[C@H](Cc4ccc(O)cc4)NC(=O)[C@H](CC(=O)O)NC(=O)[C@H](CO)NC(=O)[C@@H](NC(=O)[C@H](Cc4ccccc4)NC(=O)[C@@H](NC(=O)CNC(=O)[C@H](CCC(N)=O)NC(=O)C(C)(C)NC(=O)[C@@H](N)Cc4c[nH]cn4)[C@@H](C)O)[C@@H](C)O)CCC(=O)NCCCC[C@@H](C(=O)N[C@@H](CCC(=O)O)C(=O)N[C@@H](Cc4ccccc4)C(=O)N[C@H](C(=O)N[C@@H](CCC(=O)O)C(=O)N[C@@H](Cc4c[nH]c5ccccc45)C(=O)N[C@@H](CC(C)C)C(=O)N[C@@H](CC(C)C)C(=O)N[C@@H](CCC(N)=O)C(=O)N[C@H](C(=O)O)[C@@H](C)O)[C@@H](C)CC)NC(=O)[C@H](C)NC(=O)[C@H](C)NC3=O)[C@H](O)[C@H](O)[C@H]2O)[C@@H](O)[C@H](O)[C@H]1O [EU-A1592] (H-H[Aib]QGTFTSDYSKYLDEK(Melibiouronoyl(1β-O-dodecyl))AAKEFIEWLLQT-OH; lactam 16-20; N-terminus assumed) | 0.25 nM | 0.78 nM |
| CCCCCCCCCCCCO[C@@H]1O[C@H](CO[C@H]2O[C@H](C(=O)NCCCC[C@H](NC(=O)[C@H](CC(=O)O)NC(=O)[C@H](CO)NC(=O)[C@@H](NC(=O)[C@H](Cc3ccccc3)NC(=O)[C@@H](NC(=O)CNC(=O)[C@H](CCC(N)=O)NC(=O)C(C)(C)NC(=O)[C@@H](N)Cc3c[nH]cn3)[C@@H](C)O)[C@@H](C)O)C(=O)N[C@@H](CO)C(=O)N[C@@H](CCCCN)C(=O)N[C@@H](Cc3ccc(O)cc3)C(=O)N[C@@H](CC(C)C)C(=O)N[C@@H](CC(=O)O)C(=O)N[C@H]3CCC(=O)NCCCC[C@@H](C(=O)N[C@@H](CCC(=O)O)C(=O)N[C@@H](Cc4ccccc4)C(=O)N[C@H](C(=O)N[C@@H](CCC(N)=O)C(=O)N[C@@H](Cc4c[nH]c5ccccc45)C(=O)N[C@@H](CC(C)C)C(=O)N[C@@H](CC(C)C)C(=O)N[C@@H](CCC(N)=O)C(=O)N[C@H](C(N)=O)[C@@H](C)O)[C@@H](C)CC)NC(=O)[C@H](C)NC(=O)[C@H](C)NC(=O)[C@H](CCC(N)=O)NC3=O)[C@H](O)[C@H](O)[C@H]2O)[C@@H](O)[C@H](O)[C@H]1O [EU-A1594] (H-H[Aib]QGTFTSDK(Melibiouronoyl(1β-O-dodecyl))SKYLDEQAAKEFIQWLLQT-NH2; lactam 16-20) | 0.011 nM | 0.068 nM |
| CCCCCCCCCCCCCCO[C@@H]1O[C@H](CO[C@H]2O[C@H](C(=O)NCCCC[C@H](NC(=O)[C@H](CC(=O)O)NC(=O)[C@H](CO)NC(=O)[C@@H](NC(=O)[C@H](Cc3ccccc3)NC(=O)[C@@H](NC(=O)CNC(=O)[C@H](CCC(N)=O)NC(=O)C(C)(C)NC(=O)[C@@H](N)Cc3c[nH]cn3)[C@@H](C)O)[C@@H](C)O)C(=O)N[C@@H](CO)C(=O)N[C@@H](CCCCN)C(=O)N[C@@H](Cc3ccc(O)cc3)C(=O)N[C@@H](CC(C)C)C(=O)N[C@@H](CC(=O)O)C(=O)N[C@H]3CCC(=O)NCCCC[C@@H](C(=O)N[C@@H](CCC(=O)O)C(=O)N[C@@H](Cc4ccccc4)C(=O)N[C@H](C(=O)N[C@@H](CCC(N)=O)C(=O)N[C@@H](Cc4c[nH]c5ccccc45)C(=O)N[C@@H](CC(C)C)C(=O)N[C@@H](CC(C)C)C(=O)N[C@@H](CCC(N)=O)C(=O)N[C@H](C(N)=O)[C@@H](C)O)[C@@H](C)CC)NC(=O)[C@H](C)NC(=O)[C@H](C)NC(=O)[C@H](CCC(N)=O)NC3=O)[C@H](O)[C@H](O)[C@H]2O)[C@@H](O)[C@H](O)[C@H]1O [EU-A1595] (H-H[Aib]QGTFTSDK(X2)SKYLDEQAAKEFIQWLLQT-NH2; lactam 16-20; N-terminus assumed) | 0.021 nM | 0.113 nM |
| CCCCCCCCCCCCCCCCO[C@@H]1O[C@H](CO[C@H]2O[C@H](C(=O)NCCCC[C@H](NC(=O)[C@H](CC(=O)O)NC(=O)[C@H](CO)NC(=O)[C@@H](NC(=O)[C@H](Cc3ccccc3)NC(=O)[C@@H](NC(=O)CNC(=O)[C@H](CCC(N)=O)NC(=O)C(C)(C)NC(=O)[C@@H](N)Cc3c[nH]cn3)[C@@H](C)O)[C@@H](C)O)C(=O)N[C@@H](CO)C(=O)N[C@@H](CCCCN)C(=O)N[C@@H](Cc3ccc(O)cc3)C(=O)N[C@@H](CC(C)C)C(=O)N[C@@H](CC(=O)O)C(=O)N[C@H]3CCC(=O)NCCCC[C@@H](C(=O)N[C@@H](CCC(=O)O)C(=O)N[C@@H](Cc4ccccc4)C(=O)N[C@H](C(=O)N[C@@H](CCC(N)=O)C(=O)N[C@@H](Cc4c[nH]c5ccccc45)C(=O)N[C@@H](CC(C)C)C(=O)N[C@@H](CC(C)C)C(=O)N[C@@H](CCC(N)=O)C(=O)N[C@H](C(N)=O)[C@@H](C)O)[C@@H](C)CC)NC(=O)[C@H](C)NC(=O)[C@H](C)NC(=O)[C@H](CCC(N)=O)NC3=O)[C@H](O)[C@H](O)[C@H]2O)[C@@H](O)[C@H](O)[C@H]1O [EU-A1596] (H-H[Aib]QGTFTSDK(X1)SKYLDEQAAKEFIQWLLQT-NH2; lactam 16-20; N-terminus assumed) | 0.493 nM | 1.23 nM |
| CCCCCCCCCCCCO[C@@H]1O[C@H](CO[C@H]2O[C@H](C(=O)NCCCC[C@H](NC(=O)[C@H](CC(=O)O)NC(=O)[C@H](CO)NC(=O)[C@@H](NC(=O)[C@H](Cc3ccccc3)NC(=O)[C@@H](NC(=O)CNC(=O)[C@H](CCC(N)=O)NC(=O)C(C)(C)NC(=O)[C@@H](N)Cc3c[nH]cn3)[C@@H](C)O)[C@@H](C)O)C(=O)N[C@@H](CO)C(=O)N[C@@H](CCCCN)C(=O)N[C@@H](Cc3ccc(O)cc3)C(=O)N[C@@H](CC(C)C)C(=O)N[C@@H](CC(=O)O)C(=O)N[C@H]3CCC(=O)NCCCC[C@@H](C(=O)N[C@@H](CCC(=O)O)C(=O)N[C@@H](Cc4ccccc4)C(=O)N[C@H](C(=O)N[C@@H](CCC(=O)O)C(=O)N[C@@H](Cc4c[nH]c5ccccc45)C(=O)N[C@@H](CC(C)C)C(=O)N[C@@H](CC(C)C)C(=O)N[C@@H](CCC(N)=O)C(=O)N[C@H](C(N)=O)[C@@H](C)O)[C@@H](C)CC)NC(=O)[C@H](C)NC(=O)[C@H](C)NC(=O)[C@H](CCC(N)=O)NC3=O)[C@H](O)[C@H](O)[C@H]2O)[C@@H](O)[C@H](O)[C@H]1O [EU-A1598] (H-H[Aib]QGTFTSDK(Melibiouronoyl(1β-O-dodecyl))SKYLDEQAAKEFIEWLLQT-NH2; lactam 16-20; N-terminus assumed) | 0.026 nM | 0.199 nM |
